Entries after “also recorded” stand apart in the source; their conditions may differ.
Tests used:
Assay type in all cases: cell-based, human
HeLa cells [1] = test: Cell number determination by crystal violet staining; settings: for cell growth: 24 h; for concentration that significantly inhibits HeLa proliferation: 24 h of exposure
Experimental: Crystal violet is a method used to determine the number of cells by staining the deoxyribonucleic acid (DNA). Gillies et al. (1986) used crystal violet to quantify cell number in monolayer cultures as a function of the absorbance of the dye taken up by the cells. A dose-dependent study was chosen with a concentration range of 0.1–25 μM since it was previously observed in our laboratory that this concentration series exerts antiproliferative activity in HeLa cells. Exponentially growing HeLa cells were seeded in 96 well tissue culture plates at a cell density of 5,000 cells per well. Cells were incubated at 37°C in a humidified atmosphere containing 5% CO2 for 24 h to allow for attachment. To establish the starting number of cells, a baseline determination was conducted before exposure. Subsequently, the medium was discarded and cells were exposed to the sulphamoylated 2ME2 analogues at a concentration series of 0.1–25 μM for the 24 h at 37°C. Vehicle-treated controls were also included. Cells were fixed with 100 µl of 1% gluteraldehyde (incubation for 15 min at room temperature). Gluteraldehyde was discarded and cells were stained using 100 µl 0.1% crystal violet (incubated at room temperature for 30 min). Excedent crystal violet was discarded and the 96 well plate was submersed under running water. Cells were solubilized using 200 µl 0.2% Triton X-100 and incubated at room temperature for 30 min. Solution (100 µl) was transferred to a new microtitre plate. Afterwards, the absorbance was determined at 570 nm using an ELx800 Universal Microplate Reader available from Bio-Tek Instruments Inc. (Vermont, United States of America).

HeLa cells [2] = test: Cytotoxicity: lactate dehydrogenase assay; settings: 24 h, compared to vehicle-treated cells
Experimental: Lactate dehydrogenase (LDH) is a soluble cytosolic enzyme that catalyzes the interconversion of lactate and pyruvate. Cells release LDH during injury or cell damage, following the loss of membrane integrity consequential from either apoptosis or necrosis. LDH activity can therefore be used as an indicator of cell membrane integrity and serves as a general mean to assess for cytotoxicity resulting from exposure to chemical compounds. Cells were seeded in 96 well plates at a cell density of 5,000 cells per well (incubated at 37°C at 5% CO2). After 24 h, cells were exposed to 0.1–25 μM sulphamoylated 2ME2 analogues including vehicle-treated controls and incubated for 24 h at 37°C. Subsequently, the 200 μl medium was transferred and centrifuged at 5,000 rpm for 10 min. Supernatant (10 μl) was then transferred to an optimally clear 96 well plate. LDH reaction mix (100 μl mixed according to the supplier's manual instructions) was added to the medium. After 90 min incubation at room temperature, the absorbance was read at 460 nm (reference wavelength of 630 nm) with an ELx800 Universal Microplate Reader from Bio-Tek Instruments Inc. (Vermont, United States of America).

HeLa cells [3] = test: Cell morphology by transmission electron microscopy; settings: 24 h; for cell shrinkage (TEM): compared to vehicle-treated cells
Experimental: The in vitro influence of ESE-15-one, EMBS and ESE-16 on cell morphology was determined after exposure for 24 h using transmission electron microscopy (TEM). […] After each fixation step the samples were rinsed 3 times in 0.0075 M sodium phosphate buffer (pH 7.4). Samples were dehydrated using increasing concentrations of ethanol (30%, 50%, 70%, 90%, and 3×100%) and embedded in Quetol resin, sectioned with a microtome and placed on copper discs. Sections were contrasted with 4% aqueous uranyl acetate and Reynolds' lead citrate and viewed with a JOEL JEM 2100F transmission electron microscope (Electron Microscopy Unit, University of Pretoria, South Africa).

HeLa cells [4] = test: Cytochrome c release (FlowCellect, flow cytometry); settings: 0.5 μM analogues (2-methoxyestradiol-bis-sulphamate 0.55 μM), 24 h
Experimental: (§1) This kit utilizes a unique set of buffers that selectively permeabilizes the […] without affecting the mitochondrial membrane. […] Cells (500,000) were seeded with an overnight attachment policy. After 24 h of exposure to 0.5 μM of the sulphamoylated 2ME2 analogues, cells were detached using trypsin and centrifuged at 13,000×g. Cells (500,000) were resuspended in PBS, centrifuged and resuspended in permeabilization buffer (according to supplier's instructions) for 10 min on ice. Subsequently cells were centrifuged, resuspended in 100 µl fixation buffer (according to supplier's instructions) for 20 min at room temperature, centrifuged again and resuspended in blocking buffer (150 µl). After another centrifugation step, cells were centrifuged and resuspended in blocking buffer (twice). Anti-cytochrome c-FITC (10 µl) was added to each sample and samples were incubated for 30 min at room temperature. Cells were centrifuged and blocking buffer (100 µl) was added. After centrifugation, blocking buffer (200 µl) was added to the samples for analysis via flow cytometry (FC500 System flow cytometer, Beckman Coulter South Africa (Pty) Ltd). Cells presenting with cytochrome c release were detected in the fluorescein isothiocyanate (FITC) channel (FL1) showing diffused green fluorescence. Data from at least 10 000 cells were analyzed by means of Cyflogic version 1.2.1 software (Pertu Therho, Turko, Finland).

MDA-MB-231 cells [5] = test: Cytochrome c release (FlowCellect, flow cytometry); settings: MDA-MB-231, 0.5 μM analogues (2-methoxyestradiol-bis-sulphamate 0.55 μM), 24 h
Experimental: as §1

HeLa cells [6] = test: Double immunofluorescence of intracellular microtubules; settings: 24 h, 0.189 μM ESE-15-one, 0.5 μM EMBS and ESE-16, 1μM colchicine
Experimental: (§2) In order to visualize the effect of the 2ME2 analogues on microtubule dynamics and integrity, a double immunofluorescence technique using antibodies against tyrosinated and detyrsosinated tubulin was conducted as described by Paturle-Lafanechère et al. (2004). HeLa and MDA-MB-231 cells were seeded onto sterilized coverslips and allowed to grow to 80% confluency for 48 h. Cells were exposed to 0.189 μM ESE-15-one, 0.5 μM EMBS and ESE-16 along with DMSO (negative control) and 1μM colchicine as a positive control for 24 h. Cells were permeablised permeabilized with warmed OPT buffer (80 mmol/L Pipes, […], […], 0.5% Triton X-100 and glycerol 10%, pH 6.8), followed by fixation in ice-cold methanol at −20°C and were subsequently incubated with the primary antibody cocktail (PBS containing anti-detyrosinated tubulin (L4), anti-[…], BSA 0.3%, tween 0.1%). After incubation, cells were incubated with the secondary antibodies, namely Alexa 488 (Invitrogen) and Cy3 (Jackson ImmunoResearch laboratories). Samples were visualized using a Zeiss AxioImager Z1 microscope controlled by Axiovision softwared (Carl Zeiss) (X63 oil objective). Images were captured using an Ocra R2 N/B camera (Hamamatsu) and assessed for microtubule integrity and ratio of tyrosinated to detyrosinated tubulin.

MDA-MB-231 cells [7] = test: as above; settings: MDA-MB-231, 24 h; 0.189 μM ESE-15-one, 0.5 μM EMBS and ESE-16, 1μM colchicine
Experimental: as §2

[8] = 0.5 µM, compared to vehicle-treated cells

Structure (SMILES) | cell growth (HeLa cells [1]; 0.1 µM) [%] | cell growth (HeLa cells [1]; [8]) [%] | cell growth (HeLa cells [1]; 5 µM and 10 µM) | concentration that significantly inhibits HeLa proliferation (HeLa cells [1]) [µM] | LDH levels / LDH release (HeLa cells [2]) | cell debris (TEM) (HeLa cells [3]) | vacuoles (TEM) (HeLa cells [3]) | cell shrinkage (TEM) (HeLa cells [3]) | Cytochrome c in cytoplasm (cells with cytochrome c release) (HeLa cells [4]) | Cytochrome c in cytoplasm (cells with cytochrome c release) (MDA-MB-231 cells [5]) | microtubule integrity (HeLa cells [6]) | microtubule integrity (MDA-MB-231 cells [7]) | apoptotic bodies (TEM) (HeLa cells [3])
CCc1cc2c(cc1OS(N)(=O)=O)CC[C@@H]1C2CC[C@]2(C)[C@@H](OS(N)(=O)=O)CC[C@@H]12 (stereo partly drawn) [EMBS, (8R, 13S, 14S, 17S)-2-ethyl-13-methyl-7,8,9, 11, 12,13, 14, 15, 16, 17-decahydro-6H-cyclopenta [a] phenanthrane-3, 17-diyl bis (sulphamate)] | 92.32 | 40.01 | slight decrease in cell growth | 0.5 | No statistically significant increase in LDH levels | Cell debris was observed | vacuoles | shrunken | 21–23% | 21–23% | microtubule abrogation; also recorded: fragmented microtubules | detyrosinated microtubule fragments | 
CCc1cc2c(cc1OS(N)(=O)=O)CC[C@@H]1[C@@H]2CC[C@]2(C)C(=O)C=C[C@@H]12 [ESE-15-one, 2-Ethyl-3-O-sulphamoyl-estra-1,3,5 (10) 15-tetraene-3-ol-17one] | 80.31 | 40.87 | slight decrease in cell growth | 0.5 | No statistically significant increase in LDH levels |  | vacuoles | shrunken | 35% | 34% | microtubule abrogation; also recorded: altered microtubule morphology | detyrosinated microtubule fragments | Apoptotic bodies were observed

— PMC3764137, “Sulphamoylated 2-Methoxyestradiol Analogues Induce Apoptosis in Adenocarcinoma Cell Lines” (PLoS ONE, 2013)
